According to US20180228811A1, “GDNF INDUCTION FOR THE TREATMENT OF RETINAL DISORDERS” (THE SCHEPENS EYE RESEARCH INSTITUTE, INC., priority 2014, published 2018):
Values joined by “and” are separate entries in the source; they are usually repeats but may differ in a detail not shown here. Equal entries are not always repeated. “Also recorded” adds a separate entry of the source.

Experiments:
[1] = Pharmacokinetic studies of Compound I sustained release formulation (suspension) in wild-type mice; type: in vivo, mouse; conditions: for Compound I content in the collected vitreoretinal samples / Compound I concentration in the vitreoretinal sample: 2 ul of 60 mg/ml suspension intravitreally; for total Compound I content per eye: suspension intravitreally
Experimental: To profile pharmacokinetics of Compound I after single intravitreal injection, 2 ul of Compound I suspension (60 mg/ml) were administered intravitreally to 3 week old wild-type (C57/Bl6) mice in the same way as described above for the solution. A beveled glass needle connected to a Hamilton syringe through polyethylene tubing was used. During the injection, corneal paracenthesis was performed to reduce intraocular pressure.
For enucleation animals were euthanized at several timepoints after injection: 1 hour (n=5), 1 day (n=3), 2 days (n=3), 7 days (n=3) and 14 days (n=3). The eyes were enucleated and placed in chilled phosphate-buffered saline and kept on ice. The eyes were dissected within 30 minutes post-enucleation: total retina and vitreous were collected into pre-weighed tubes, weighted and snap frozen. For Compound I content in the eye analysis retina and vitreous humor samples were diluted in 0.1% formic acid in 90:10 (v:v) acetonitrile:water before being analyzed for Compound I using an analytical method based on protein precipitation, followed by HPLC/MS/MS analysis. Using a 25 μL aliquot of sample, the lower limit of quantification (LLQ) for Compound I was 1.00 ng/mL. The computer systems that were used on this study to acquire and quantify data included Analyst Version 1.6.1 and SMS2000 version 2.3. The results were analyzed by ANOVA (p<0.05).

photoreceptors = assay: Photoreceptor rescue by Compound I suspension in rhodopsin knockout mice (H&E cell count); type: in vivo, mouse; conditions: rho-/- mice
Experimental: To study photoreceptor rescue by Compound I suspension (60 mg/ml), 2 ul of suspension (n=5) or Vehicle (n=5) were administered intravitreally to 4-week old rhodopsin knockout mice using a beveled glass needle, connected to a Hamilton syringe through polyethylene tubing. During the injection, corneal paracenthesis was performed to reduce intraocular pressure. 10 weeks after the injection, eyes were enucleated and fixed in Davidson solution for histological processing: paraffin embedding and sectioning. Six micron thick sections were cut in the area close to optic nerve head (ONH) and stained with hematoxylin-eosin (H&E) or processed for immunohistochemical analysis (IHC). H&E-stained sections were imaged (Olympus imaging system DP72) and total photoreceptor number was estimated based on the nuclei count in the outer nuclear layer (ONL). Cells were counted in each 100 um retina span starting from optic nerve head on three sections for each eye (five eyes per group). Total photoreceptor number per section was also calculated.

GDNF mRNA = GDNF mRNA time-course in ARPE19 cells (qPCR); type: cell-based, human; conditions: ARPE19, 100 nM Compound I, normalized by GAPDH and ßActin
Experimental: GDNF induction […] was assessed using three retinal-specific cell systems: ARPE19, as a model for human retinal pigment epithelium; human retinal progenitor cells (hRPC), as a substitute for human retinal neurons/glia; and mouse eyecups, differentiated from induced pluripotent stem cells. ARPE19 cells are described in Dunn et al., Exp. Eye Res. 62: 155-169, 1996. To study GDNF induction in a human retinal pigment epithelium cell line, ARPE19, thawed ARPE19 cells (passage 33, ATCC) were plated on fibronectin (Akron)-coated plates (Nunc) in stimulation medium at a density of 10 k cells/sq.cm. The flasks were incubated at standard conditions: 37° C., 5% CO2, 100% humidity. Cells were plated 24 hours prior to Compound I treatment and were grown in Ultraculture medium (Lonza), supplemented with 1×MEM NEAA (Gibco), 1× L-glutamine (Gibco), 1× Antibiotic/antimycotic (Gibco), 2 ng/ml bFGF (Peprotech), 1 ng/ml EGF (Peprotech). For qPCR analysis, the experiments were performed in 35 mm Petri dishes in 2 ml of medium with Compound I concentration of 100 nM (DMSO-based solution). Total mRNA was isolated at 0, 15, 30, 60, 120, 240 minutes post stimulation. For protein expression determination by ELISA, the experiments were performed in 96 well plates in 100 ul of medium with each condition (concentrations ranging from 0 to 10 uM) reproduced in 3 wells. […]

GDNF = GDNF induction by Compound I suspension in wild-type mice; type: in vivo, mouse; conditions: suspension intravitreally; for GDNF mRNA induction vs. vehicle / GDNF protein level vs. vehicle: wild-type mice
Experimental: To study GDNF induction by Compound I suspension (60 mg/ml), 2 ul of suspension (n=35) or Vehicle (n=5) were administered intravitreally to 3-week old wild-type (C57/Bl6) mice. A beveled glass needle connected to a Hamilton syringe through polyethylene tubing was ysed. During the injection, corneal paracenthesis was performed to reduce intraocular pressure.
Animals were euthanized at several timepoints after injection for enucleation and RNA/protein analysis (n=5 for each timepoint, n=4 for 7 days and 14 days): vehicle at 1 hour, Compound I at 1 hour, 1 day, 2 days, 7 days and 14 days. The treated and untreated eyes were enucleated and were collected for mRNA and protein expression as previously described. The treated and untreated eyes were enucleated and placed in 250 ul of chilled RNAlater buffer (Qiagen) and stored at 4° C. The eyes were excised and total neural retina with retinal pigment epithelium was collected into 400 ul of Lysis buffer (Qiagen RNeasy kit) with beta-mercaptoethanol. Total RNA was isolated using RNeasy kit (Qiagen) and eluted with 100 ul of Ultrapure water (Life technologies). All flow through from RNA isolation (˜2.4 ml) was collected and mixed with 10 ml of ice-cold (−20° C.) acetone for protein precipitation. The protein was precipitated at −20° C. for 30 minutes, then pelleted at 3500 rpm for 20 min. Pellets were washed once with 100% ethanol, then reconstituted with 300 ul of RIPA buffer with AEBSF. mRNA and protein expression were assessed by qPCR and Western blot (WB). The results were analyzed by ANOVA (p<0.05).

[2] = wt mice, 14 days post injection

## COc1cc2c(cc1S(=O)(=O)c1ccc(OCc3ccc(Cl)cc3)cc1)CCN(C)CC2 [Compound I, 7-[4-(4-chloro-benzyloxy)-benzenesulfonyl]-8-methoxy-3-methyl-2,3,4,5-tetrahydro-1H-3-benzazepine]
[1]; single 2 ul intravitreal injection of suspension, modeling
  time drug may be present according to modeling: up to 4 weeks
[1]; wt mice, 1 hour post-injection
  Compound I content in the collected vitreoretinal samples: 21 ug per milligram of tissue
  total Compound I content per eye: 80 µg
[1]; wt mice, 14 days
  Compound I concentration in the vitreoretinal sample: 5 mg/g tissue
[1]; [2]
  Compound I content in the collected vitreoretinal samples: 5 ug per milligram of tissue
  total Compound I content per eye: 28 µg
[1]; wt mice, start of time course (1 hour)
  Compound I concentration in the vitreoretinal sample: 20 mg/g tissue
[1]; wt mice, single 2 ul injection of suspension
  time the compound remained in the eye after single intravitreal injection: at least 2 weeks
photoreceptors; 2 ul of 60 mg/ml suspension intravitreally at 4 weeks of age, 10 weeks after injection
  increase in photoreceptor cell number pan-retinally compared to uninjected and vehicle: 2 fold and 2.1 fold
photoreceptors; suspension, 10 weeks after injection, uninjected 516, vehicle 508
  total photoreceptor cells per section: 1210 cells per section
photoreceptors; suspension, 10 weeks after the treatment
  retinal pigment epithelium, inner nuclear and ganglion cell layers, histology: no changes in the retinal pigment epithelium, inner nuclear or ganglion cell layers
photoreceptors; suspension, 200 micron area
  increase in photoreceptor cell number in the area close to the optic nerve head (ONH): 1.5 fold
photoreceptors; suspension, compared to vehicle-treated and untreated eyes
  outer nuclear layer (ONL), histology: preserved; also recorded: significant increase in ONL thickness
photoreceptors; suspension, non-treated 46, vehicle control 39
  photoreceptors per 200 um close to the ONH: 63 photoreceptors per 200 um
GDNF mRNA
  time of GDNF mRNA peak after stimulation: 30 min
GDNF; C57Bl/6 mice, up to 14 days
  GDNF mRNA upregulation over the time course: > 1.8 fold
  GDNF protein upregulation over the time course: > 2.8 fold
GDNF; 1 hour
  GDNF mRNA induction vs. vehicle: 1.4 fold
  GDNF protein level vs. vehicle: 0.9 fold
GDNF; 1 day
  GDNF mRNA induction vs. vehicle: 1.3 fold
  GDNF protein level vs. vehicle: 1.6 fold
GDNF; 2 days
  GDNF mRNA induction vs. vehicle: 1.2 fold
  GDNF protein level vs. vehicle: 2.4 fold
GDNF; 7 days
  GDNF mRNA induction vs. vehicle: 1.8 fold
  GDNF protein level vs. vehicle: 2.7 fold
GDNF; 14 days
  GDNF mRNA induction vs. vehicle: 1.8 fold
  GDNF protein level vs. vehicle: 3.2 fold
